Experiments:
hMOR = settings: BRET G protein activation assay, cited from earlier work
human 5-HT2B receptors [1] = biological target: T1, human 5-HT2B receptors (Homo sapiens, UniProt P41595); assay: 5-HT2B receptor phosphoinositide hydrolysis; format: cell-based; settings: for 5-HT2B E/Imax (Imax): Imax is the percent maximum SB 206553, inverse agonist, response, value (SEM), N.A. = no activation or inactivation up to 30 μM; for In vitro functional activity at human 5-HT2BRs: phosphoinositide hydrolysis assay
T1 sequence (P41595 whole entry): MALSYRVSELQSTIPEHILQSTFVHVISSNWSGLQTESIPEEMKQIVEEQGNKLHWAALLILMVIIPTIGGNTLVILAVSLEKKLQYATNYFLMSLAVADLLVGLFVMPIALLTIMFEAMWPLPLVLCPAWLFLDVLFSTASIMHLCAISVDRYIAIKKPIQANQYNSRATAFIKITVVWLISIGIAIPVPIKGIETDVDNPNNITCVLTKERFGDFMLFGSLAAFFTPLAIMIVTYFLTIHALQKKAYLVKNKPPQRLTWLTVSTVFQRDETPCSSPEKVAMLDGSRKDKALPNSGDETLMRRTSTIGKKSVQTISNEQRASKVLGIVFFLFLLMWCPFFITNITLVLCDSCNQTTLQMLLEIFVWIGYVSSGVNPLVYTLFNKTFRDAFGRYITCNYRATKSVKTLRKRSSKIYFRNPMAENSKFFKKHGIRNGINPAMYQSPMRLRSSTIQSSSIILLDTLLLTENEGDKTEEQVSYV

human 5-HT1ARs [2] = biological target: T2, human 5-HT1ARs (Homo sapiens, UniProt P08908); assay: In vitro 5-HT1A receptor cAMP signaling; format: cell-based; settings: for 5-HT1A E/Imax: Emax is the percent maximum serotonin, agonist, response, value (SEM), N.A. = no activation or inactivation up to 30 μM
T2 sequence (P08908 1-422): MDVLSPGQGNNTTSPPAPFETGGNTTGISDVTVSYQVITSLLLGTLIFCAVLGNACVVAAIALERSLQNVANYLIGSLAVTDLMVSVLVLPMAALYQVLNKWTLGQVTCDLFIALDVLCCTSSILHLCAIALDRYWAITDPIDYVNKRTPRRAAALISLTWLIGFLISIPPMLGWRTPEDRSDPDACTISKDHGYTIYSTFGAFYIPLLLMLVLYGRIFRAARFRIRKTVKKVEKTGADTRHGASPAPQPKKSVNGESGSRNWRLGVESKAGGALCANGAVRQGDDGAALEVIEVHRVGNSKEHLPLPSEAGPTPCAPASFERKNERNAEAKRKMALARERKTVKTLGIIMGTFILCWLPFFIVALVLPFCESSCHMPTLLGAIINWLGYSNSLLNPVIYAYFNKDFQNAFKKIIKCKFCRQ

human 5-HT2B receptors [3] = biological target: T1, human 5-HT2B receptors; format: binding; settings: 100 nM alkaloid; [125I](±)DOI; CHO-K1 cells
5-HT3Rs = biological target: T3, 5-HT3Rs (Homo sapiens, UniProt P46098); assay: Radioligand competition binding at 5-HT3Rs
T3 sequence (P46098 24-478): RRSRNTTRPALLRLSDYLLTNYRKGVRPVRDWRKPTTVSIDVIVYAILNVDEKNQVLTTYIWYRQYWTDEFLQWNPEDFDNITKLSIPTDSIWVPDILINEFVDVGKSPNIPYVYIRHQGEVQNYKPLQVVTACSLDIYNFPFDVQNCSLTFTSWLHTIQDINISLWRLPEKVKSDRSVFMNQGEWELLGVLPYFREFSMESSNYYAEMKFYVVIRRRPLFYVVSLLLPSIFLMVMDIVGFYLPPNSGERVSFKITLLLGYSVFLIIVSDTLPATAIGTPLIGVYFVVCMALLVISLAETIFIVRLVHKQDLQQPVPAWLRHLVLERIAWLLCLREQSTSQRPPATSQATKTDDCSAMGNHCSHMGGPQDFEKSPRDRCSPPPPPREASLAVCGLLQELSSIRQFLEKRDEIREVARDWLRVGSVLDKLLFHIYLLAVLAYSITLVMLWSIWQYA

5-HT1A receptors = settings: cited from earlier work
adrenergic α1D receptors = settings: read-out: Ki adrenergic α1D receptors; cited from earlier work
[4] = i.v., male rats
human 5-HT1ARs [5] = biological target: T2, human 5-HT1ARs; assay: Radioligand competition binding at human 5-HT1ARs; settings: present study versus 540 nM of ref 13
human 5-HT1A receptor = settings: read-out: Ki human 5-HT1A receptor orthosteric binding site; cited from earlier work

Question: For C=C[C@H]1CN2CCc3c([nH]c4cccc(O)c34)[C@@H]2C[C@@H]1/C(=C\OC)C(=O)OC [9-O-desmethylpaynantheine (gambireine), Methyl(E)-2-((2S,3R,12bS)-8-hydroxy-3-vinyl-1,2,3,4,6,7,12,12b-octahydroindolo[2,3-a]quinolizin-2-yl)-3-methoxyacrylate], which EC50 (human 5-HT2B receptors [1]) is on record?
Answer: 2340 nM

Question: What about the “5-HT2B E/Imax (Imax)” value (human 5-HT2B receptors [1]) of the same compound?
Answer: 38 (10.3) %

Question: What about the EC50 (human 5-HT1ARs [2]) of the same compound?
Answer: 865 nM

Question: And the “5-HT1A E/Imax” value (human 5-HT1ARs [2])?
Answer: 100 (0.08) %

Question: With CC[C@H]1CN2CCc3c([nH]c4cccc(O)c34)[C@@H]2C[C@@H]1/C(=C\OC)C(=O)OC [9-O-desmethylspeciogynine (gambirine), Methyl(E)-2-((2S,3R,12bS)-3-ethyl-8-hydroxy-1,2,3,4,6,7,12,12b-octahydroindolo[2,3-a]quinolizin-2-yl)-3-methoxyacrylate] as the compound, how does the EC50 (human 5-HT2B receptors [1]) read?
Answer: 1470 nM

Question: What about the “5-HT2B E/Imax (Imax)” value (human 5-HT2B receptors [1]) of the same compound?
Answer: 45 (14.3) %

Question: And the EC50 (human 5-HT1ARs [2])?
Answer: 838 nM

Question: What about the “5-HT1A E/Imax” value (human 5-HT1ARs [2]) of the same compound?
Answer: 99 (0.08) %

Question: For CC[C@@H]1CN2CCc3c([nH]c4cccc(O)c34)[C@@H]2C[C@@H]1/C(=C\OC)C(=O)OC [9-hydroxycorynantheidine], which “Percent displacement of radioligand, 5-HT2B” value (“Percent displacement … 5-HT2B” for short) (human 5-HT2B receptors [3]) is on record?
Answer: 5.2%

Question: And the “Percent displacement of radioligand, 5-HT3” value (from here on “Percent displacement … 5-HT3”) (5-HT3Rs; 100 nM alkaloid)?
Answer: −1.3%

Question: And the “Percent displacement … 5-HT3” value (5-HT3Rs; 10,000 nM alkaloid)?
Answer: 7.3%

Question: For C/C=C1/CN2CCc3c([nH]c4ccccc34)[C@@H]2C[C@@H]1/C(=C/OC)C(=O)OC [Geissoschizine methyl ether], which “Activity at 5-HT1A receptors” value (5-HT1A receptors) is on record?
Answer: potent antagonist

Question: What does the source list for Cn1ccc2cc3c(cc21)CCN3C(=O)Nc1cccnc1 [SB 206553, reference compound]?
Answer: EC50 (human 5-HT2B receptors [1]): 15.3 nM; 5-HT2B E/Imax (Imax) (human 5-HT2B receptors [1]): 100%

Question: Which Ki (adrenergic α1D receptors) does the source give for CC[C@@H]1CN2CCc3c([nH]c4ccccc34)[C@@H]2C[C@@H]1/C(=C\OC)C(=O)OC [corynantheidine] here?
Answer: 41 nM

Question: What about the “Percent displacement … 5-HT2B” value (human 5-HT2B receptors [3]) of the same compound?
Answer: 14.8%

Question: What about the “Percent displacement … 5-HT3” value (5-HT3Rs; 100 nM alkaloid) of the same compound?
Answer: 6.2%

Question: What about the “Percent displacement … 5-HT3” value (5-HT3Rs; 10,000 nM alkaloid) of the same compound?
Answer: 6.8%

Question: With O=C1c2ccccc2S(=O)(=O)N1CCCCN1CCN(c2ncccn2)CC1 [ipsapirone, reference compound] as the compound, how does the “5-HT1A E/Imax” value (human 5-HT1ARs [2]) read?
Answer: 82 (0.1) %

Question: Which “Dose-normalized exposure (AUCinf/dose) relative to paynantheine” value [4] does the source give for CC[C@@H]1CN2CCc3c([nH]c4cccc(OC)c34)[C@@H]2C[C@@H]1/C(=C\OC)C(=O)OC [mitragynine] here?
Answer: 3.6 fold

Question: And the “Dose-normalized exposure (AUCinf/dose) relative to speciogynine” value [4]?
Answer: 1.7 fold

Question: Which “In vitro functional activity at human 5-HT2BRs” value (human 5-HT2B receptors [1]) does the source give for C=C[C@H]1CN2CCc3c([nH]c4cccc(OC)c34)[C@@H]2C[C@@H]1/C(=C\OC)C(=O)OC [paynantheine, Methyl(E)-3-methoxy-2-((2S,3R,12bS)-8-methoxy-3-vinyl-1,2,3,4,6,7,12,12b-octahydroindolo[2,3-a]quinolizin-2-yl)acrylate] here?
Answer: no agonist activity

Question: And the “Percent displacement … 5-HT3” value (5-HT3Rs; 100 nM alkaloid)?
Answer: −9.8%

Question: What about the “Percent displacement … 5-HT3” value (5-HT3Rs; 10,000 nM alkaloid) of the same compound?
Answer: −0.8%

Question: What about the “Functional activity at hMOR” value (hMOR) of the same compound?
Answer: low-potency, competitive antagonists

Question: For NCCc1c[nH]c2ccc(O)cc12 [serotonin, reference compound], which “5-HT1A E/Imax” value (human 5-HT1ARs [2]) is on record?
Answer: 100%

Question: For CC[C@@H]1CN2CCc3c([nH]c4cccc(OC)c34)[C@H]2C[C@@H]1/C(=C\OC)C(=O)OC [speciociliatine], which “Functional activity at hMOR” value (hMOR) is on record?
Answer: low-potency, competitive antagonists

Question: With CC[C@H]1CN2CCc3c([nH]c4cccc(OC)c34)[C@@H]2C[C@@H]1/C(=C\OC)C(=O)OC [speciogynine, Methyl(E)-2-((2S,3R,12bS)-3-ethyl-8-methoxy-1,2,3,4,6,7,12,12b-octahydroindolo[2,3-a]quinolizin-2-yl)-3-methoxyacrylate] as the compound, how does the “Affinity for 5-HT1ARs relative to previously reported value” (human 5-HT1ARs [5]) read?
Answer: > 10 fold

Question: And the EC50 (human 5-HT2B receptors [1])?
Answer: 2020 nM

Question: What about the “5-HT2B E/Imax (Imax)” value (human 5-HT2B receptors [1]) of the same compound?
Answer: 24.8 (6.9) %

Question: What about the “In vitro functional activity at human 5-HT2BRs” value (human 5-HT2B receptors [1]) of the same compound?
Answer: no agonist activity

Question: What about the Ki (human 5-HT1A receptor) of the same compound?
Answer: 540 nM

Question: And the “Functional activity at hMOR” value (hMOR)?
Answer: low-potency, competitive antagonists

Question: For “Methyl(4S,4aR,13bS,14aS)-4-methyl-4a,5,7,8,13,13b,14,14a-octahydro-4H-indolo[2,3-a]pyrano[3,4-g]quinolizine-1-carboxylate [ajmalicine]”, which “Percent displacement … 5-HT2B” value (human 5-HT2B receptors [3]) is on record?
Answer: 6.2%

Question: What about the “Percent displacement … 5-HT3” value (5-HT3Rs; 100 nM alkaloid) of the same compound?
Answer: −2.5%

Question: And the “Percent displacement … 5-HT3” value (5-HT3Rs; 10,000 nM alkaloid)?
Answer: 1.8%

Question: What about the Ki (human 5-HT1A receptor) of the same compound?
Answer: 420 nM
